Experimental findings from patent US12421240B2, “Hydropyrazino[1,2-d][1,4]diazepine compounds for the treatment of autoimmune disease” (Hoffmann-La Roche Inc., priority 2019, dated 2025) are described below.

The structures appear in SMILES notation.

This test addresses T1, human TLR7 (Homo sapiens, UniProt Q9NYK1).
T1 sequence (Q9NYK1 27-1049): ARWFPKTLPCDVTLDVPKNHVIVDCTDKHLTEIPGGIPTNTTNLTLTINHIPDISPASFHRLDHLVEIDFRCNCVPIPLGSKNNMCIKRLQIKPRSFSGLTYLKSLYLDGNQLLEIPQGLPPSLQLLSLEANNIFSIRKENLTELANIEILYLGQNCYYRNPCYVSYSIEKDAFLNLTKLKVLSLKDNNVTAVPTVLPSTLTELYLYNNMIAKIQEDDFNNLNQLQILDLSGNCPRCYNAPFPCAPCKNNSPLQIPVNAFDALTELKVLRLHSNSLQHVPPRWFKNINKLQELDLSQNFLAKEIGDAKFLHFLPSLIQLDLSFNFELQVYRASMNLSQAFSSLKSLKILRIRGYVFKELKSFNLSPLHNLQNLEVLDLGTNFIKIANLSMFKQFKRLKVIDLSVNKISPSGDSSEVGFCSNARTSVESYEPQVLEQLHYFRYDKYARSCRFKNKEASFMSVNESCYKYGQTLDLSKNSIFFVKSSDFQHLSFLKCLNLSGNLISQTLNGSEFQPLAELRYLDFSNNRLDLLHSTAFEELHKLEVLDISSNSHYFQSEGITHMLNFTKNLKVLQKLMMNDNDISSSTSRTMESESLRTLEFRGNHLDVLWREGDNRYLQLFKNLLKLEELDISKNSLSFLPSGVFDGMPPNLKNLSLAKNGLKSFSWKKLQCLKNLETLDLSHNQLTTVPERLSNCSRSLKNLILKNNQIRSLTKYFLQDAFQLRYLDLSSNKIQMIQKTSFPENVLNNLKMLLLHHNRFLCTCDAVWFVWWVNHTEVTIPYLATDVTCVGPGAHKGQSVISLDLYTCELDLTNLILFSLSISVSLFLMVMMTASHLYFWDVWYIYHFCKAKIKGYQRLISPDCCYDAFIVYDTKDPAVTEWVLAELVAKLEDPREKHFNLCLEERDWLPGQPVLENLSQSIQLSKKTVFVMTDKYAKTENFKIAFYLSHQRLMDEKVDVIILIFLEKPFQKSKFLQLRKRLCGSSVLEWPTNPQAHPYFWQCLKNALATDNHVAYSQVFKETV
The experiment in a line: HEK293-Blue-hTLR-7 cells assay (SEAP reporter, R848 stimulation). Format: cell-based. As to conditions: HEK293-Blue-hTLR7 cells, R848 ligand, 20 hrs; read-out: HEK/hTLR7 IC50. As for the experimental part:
The following tests were carried out in order to determine the activity of the compounds of formula (I), (Ia) or (Ib) in HEK293-Blue-hTLR-7/8/9 cells assay.
HEK293-Blue-hTLR-7 Cells Assay:
A stable HEK293-Blue-hTLR-7 cell line was purchased from InvivoGen (Cat. #: hkb-htlr7, San Diego, California, USA). These cells were originally designed for studying the stimulation of human TLR7 by monitoring the activation of NF-κB. A SEAP (secreted embryonic alkaline phosphatase) reporter gene was placed under the control of the IFN-β minimal promoter fused to five NF-κB and AP-1-binding sites. The SEAP was induced by activating NF-κB and AP-1 via stimulating HEK-Blue hTLR7 cells with TLR7 ligands. Therefore the reporter expression was declined by TLR7 antagonist under the stimulation of a ligand, such as R848 (Resiquimod), for incubation of 20 hrs. The cell culture supernatant SEAP reporter activity was determined using QUANTI-Blue™ kit (Cat. #: rep-qb1, Invivogen, San Diego, Ca., USA) at a wavelength of 640 nm, a detection medium that turns purple or blue in the presence of alkaline phosphatase.
HEK293-Blue-hTLR7 cells were incubated at a density of 250,000-450,000 cells/mL in a volume of 170 μL in a 96-well plate in Dulbecco's Modified Eagle's medium (DMEM) containing 4.5 g/L glucose, 50 U/mL penicillin, […], […], 2 mM L-glutamine, 10% (v/v) heat-inactivated fetal bovine serum with addition of 20 μL test compound in a serial dilution in the presence of final DMSO at 1% and 10 μL of 20 uM R848 in above DMEM, perform incubation under 37° C. in a CO2 incubator for 20 hrs. Then 20 μL of the supernatant from each well was incubated with 180 μL Quanti-blue substrate solution at 37° C. for 2 hrs and the absorbance was read at 620655 nm using a spectrophotometer. The signaling pathway that TLR7 activation leads to downstream NF-κB activation has been widely accepted, and therefore similar reporter assay was modified for evaluating TLR7 antagonist.

Regarding `C[C@@H]1CN(c2ccc(C#N)c3ncccc23)C[C@@H]2CCN(Cc3cnc(N4CCNCC4)nc3)CCN21` [Example 14, 5-[(4R,10aS)-4-methyl-8-[(2-piperazin-1-ylpyrimidin-5-yl)methyl]-1,3,4,6,7,9,10,10a-octahydropyrazino[1,2-d][1,4]diazepin-2-yl]quinoline-8-carbonitrile], the IC50 came to 1.8 nM.

Consider `C[C@@H]1CN(c2ccc(C#N)c3ncccc23)C[C@@H]2CCN(Cc3ccc4c(c3)CCNC4)CCN21` [Example 11, 5-[(4R,10aS)-4-methyl-8-(1,2,3,4-tetrahydroisoquinolin-6-ylmethyl)-1,3,4,6,7,9,10,10a-octahydropyrazino[1,2-d][1,4]diazepin-2-yl]quinoline-8-carbonitrile], for which the IC50 turned out to be 6.1 nM.

Take `C[C@@H]1CN(c2ccc(C#N)c3ncccc23)C[C@@H]2CCN(Cc3ccc(N4CCOC[C@H](N)C4)cn3)CCN21` [Example 21, 5-[(4R,10aS)-8-[[5-[(6R)-6-amino-1,4-oxazepan-4-yl]-2-pyridyl]methyl]-4-methyl-1,3,4,6,7,9,10,10a-octahydropyrazino[1,2-d][1,4]diazepin-2-yl]quinoline-8-carbonitrile]: the IC50 is 59.9 nM.

Consider `C[C@@H]1CN(c2ccc(C#N)c3ncccc23)C[C@@H]2CCN(Cc3ccc4c(c3)CNCC4)CCN21` [Example 12, 5-[(4R,10aS)-4-methyl-8-(1,2,3,4-tetrahydroisoquinolin-7-ylmethyl)-1,3,4,6,7,9,10,10a-octahydropyrazino[1,2-d][1,4]diazepin-2-yl]quinoline-8-carbonitrile], for which the IC50 is 4.5 nM.

On to `C[C@@H]1CN(c2ccc(C#N)c3ncccc23)C[C@@H]2CCN(c3cnc(N4CCNCC4)nc3)CCN21` [Example 2, 5-[(4R,10aS)-4-methyl-8-(2-piperazin-1-ylpyrimidin-5-yl)-1,3,4,6,7,9,10,10a-octahydropyrazino[1,2-d][1,4]diazepin-2-yl]quinoline-8-carbonitrile], for which the IC50 is 58.6 nM.

For the compound `CO[C@@H]1CN(c2cnc(CN3CC[C@H]4CN(c5ccc(C#N)n6nccc56)C[C@@H](C)N4CC3)c(F)c2)C[C@H]1N` [Example 26, 4-[(4R,10aS)-8-[[5-[(3R,4R)-3-amino-4-methoxy-pyrrolidin-1-yl]-3-fluoro-2-pyridyl]methyl]-4-methyl-1,3,4,6,7,9,10,10a-octahydropyrazino[1,2-d][1,4]diazepin-2-yl]pyrazolo[1,5-a]pyridine-7-carbonitrile], the IC50 worked out at 35.8 nM.

Consider `C[C@@H]1CN(c2ccc(C#N)c3ncccc23)C[C@@H]2CCN(c3cncc4c3CCNC4)CCN21` [Example 4, 5-[(4R,10aS)-4-methyl-8-(5,6,7,8-tetrahydro-2,7-naphthyridin-4-yl)-1,3,4,6,7,9,10,10a-octahydropyrazino[1,2-d][1,4]diazepin-2-yl]quinoline-8-carbonitrile], for which the IC50 was determined as 17.8 nM.

In the case of `C[C@@H]1CN(c2ccc(C#N)c3ncccc23)C[C@@H]2CCN(Cc3cc4c(cn3)CCNC4)CCN21` [Example 9, 5-[(4R,10aS)-4-methyl-8-(5,6,7,8-tetrahydro-2,6-naphthyridin-3-ylmethyl)-1,3,4,6,7,9,10,10a-octahydropyrazino[1,2-d][1,4]diazepin-2-yl]quinoline-8-carbonitrile], the IC50 was 8.2 nM.

With `C[C@@H]1CN(c2ccc(C#N)c3ncccc23)C[C@@H]2CCN(Cc3cncc(N4CCNCC4)c3)CCN21` [Example 16, 5-[(4R,10aS)-4-methyl-8-[(5-piperazin-1-yl-3-pyridyl)methyl]-1,3,4,6,7,9,10,10a-octahydropyrazino[1,2-d][1,4]diazepin-2-yl]quinoline-8-carbonitrile], the IC50 stood at 11.1 nM.

On to `C[C@@H]1CN(c2ccc(C#N)c3ncccc23)C[C@@H]2CCN(Cc3ccc(N4CCNCC4)cn3)CCN21` [Example 19, 5-[(4R,10aS)-4-methyl-8-[(5-piperazin-1-yl-2-pyridyl)methyl]-1,3,4,6,7,9,10,10a-octahydropyrazino[1,2-d][1,4]diazepin-2-yl]quinoline-8-carbonitrile], for which the IC50 was 4.8 nM.
